molecular target: T1, POLγA:A467T (Homo sapiens, UniProt P54098, A467T); assay: DNA polymerization assay, POLγA:A467T mutant; assay type: biochemical; details: stimulation of polymerase activity, primed M13mp18 ssDNA, 37° C. 2 hours; read-out: A467T AC50
T1 sequence (P54098 1-1239 A467T): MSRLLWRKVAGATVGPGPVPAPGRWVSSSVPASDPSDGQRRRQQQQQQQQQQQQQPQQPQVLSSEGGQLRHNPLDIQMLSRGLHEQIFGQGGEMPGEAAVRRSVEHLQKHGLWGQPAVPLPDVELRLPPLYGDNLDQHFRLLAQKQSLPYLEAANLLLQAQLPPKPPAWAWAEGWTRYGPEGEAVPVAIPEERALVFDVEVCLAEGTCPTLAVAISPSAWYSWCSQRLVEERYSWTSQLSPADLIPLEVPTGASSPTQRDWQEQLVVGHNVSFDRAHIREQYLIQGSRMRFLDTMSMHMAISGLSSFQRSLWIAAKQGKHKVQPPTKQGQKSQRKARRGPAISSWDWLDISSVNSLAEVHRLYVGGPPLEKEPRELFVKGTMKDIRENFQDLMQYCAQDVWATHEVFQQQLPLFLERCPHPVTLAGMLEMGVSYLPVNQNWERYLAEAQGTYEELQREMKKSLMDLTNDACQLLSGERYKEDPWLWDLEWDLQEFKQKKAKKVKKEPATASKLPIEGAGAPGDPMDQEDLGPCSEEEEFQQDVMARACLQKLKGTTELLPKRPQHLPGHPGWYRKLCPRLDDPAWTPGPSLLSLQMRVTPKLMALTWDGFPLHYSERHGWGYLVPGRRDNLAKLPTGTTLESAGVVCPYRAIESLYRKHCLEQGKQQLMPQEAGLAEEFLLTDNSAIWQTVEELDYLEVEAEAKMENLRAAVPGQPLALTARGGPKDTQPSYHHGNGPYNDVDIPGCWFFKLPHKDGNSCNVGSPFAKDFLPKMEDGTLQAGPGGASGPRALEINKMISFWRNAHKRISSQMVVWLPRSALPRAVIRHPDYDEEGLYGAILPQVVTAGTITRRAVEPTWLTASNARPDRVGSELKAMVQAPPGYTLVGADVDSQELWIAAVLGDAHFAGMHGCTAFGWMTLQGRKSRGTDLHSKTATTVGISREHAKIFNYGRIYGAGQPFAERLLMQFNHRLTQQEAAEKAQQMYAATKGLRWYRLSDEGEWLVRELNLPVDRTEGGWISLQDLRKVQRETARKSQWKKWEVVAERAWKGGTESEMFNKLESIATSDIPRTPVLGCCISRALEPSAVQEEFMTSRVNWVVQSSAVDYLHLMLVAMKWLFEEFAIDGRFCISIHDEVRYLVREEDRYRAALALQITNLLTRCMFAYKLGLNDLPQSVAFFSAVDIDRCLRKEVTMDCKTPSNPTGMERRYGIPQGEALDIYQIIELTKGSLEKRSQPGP
T1 sequence (Q9UHN1 1-485 partner): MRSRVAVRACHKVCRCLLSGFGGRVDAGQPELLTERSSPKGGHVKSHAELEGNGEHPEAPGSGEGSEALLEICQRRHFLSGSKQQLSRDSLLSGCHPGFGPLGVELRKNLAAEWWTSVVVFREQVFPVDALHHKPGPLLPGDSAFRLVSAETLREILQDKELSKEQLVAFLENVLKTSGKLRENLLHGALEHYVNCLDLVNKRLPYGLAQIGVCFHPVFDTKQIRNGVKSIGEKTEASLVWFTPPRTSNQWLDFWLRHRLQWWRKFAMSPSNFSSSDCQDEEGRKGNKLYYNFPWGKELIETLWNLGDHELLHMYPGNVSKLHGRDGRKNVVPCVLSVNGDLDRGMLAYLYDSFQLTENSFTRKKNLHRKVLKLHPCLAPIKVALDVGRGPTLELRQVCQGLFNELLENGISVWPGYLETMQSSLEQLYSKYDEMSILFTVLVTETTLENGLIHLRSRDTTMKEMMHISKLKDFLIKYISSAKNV

Row | AC50 [µM] | SMILES
1 | 37 | Cc1cc(S(=O)(=O)Nc2ccc3ccn(C)c3c2)c(C)cc1Cl [Example 72, 4-chloro-2,5-dimethyl-N-(1-methyl-1H-indol-6-yl)benzenesulfonamide]
2 | 16 | Cc1nc2ccc(NS(=O)(=O)c3cc(C)c(Cl)cc3C)cc2s1 [Example 73, 4-chloro-2,5-dimethyl-N-(2-methylbenzo[d]thiazol-6-yl)benzenesulfonamide]
3 | > 100 | Cc1cc(S(=O)(=O)Nc2ccc3nc(-c4ccccc4)sc3c2)c(C)cc1Cl [Example 74, 4-chloro-2,5-dimethyl-N-(2-phenylbenzo[d]thiazol-6-yl)benzenesulfonamide]
4 | > 100 | Cc1nc2cc(NS(=O)(=O)c3cc(C)c(Cl)cc3C)ccc2o1 [Example 75, 4-chloro-2,5-dimethyl-N-(2-methylbenzo[d]oxazol-5-yl)benzenesulfonamide]
5 | 3 | Cc1cc(S(=O)(=O)Nc2cccc(-c3ncc(C4CC4)s3)c2)c(C)cc1Cl [Example 76, 4-chloro-N-(3-(5-cyclopropylthiazol-2-yl)phenyl)-2,5-dimethylbenzenesulfonamide]
6 | > 100 | Cc1cc(S(=O)(=O)Nc2ccccc2-c2ncco2)c(C)cc1Cl [Example 77, 4-chloro-2,5-dimethyl-N-(2-(oxazol-2-yl)phenyl)benzenesulfonamide]
7 | > 100 | Cc1cnc(-c2cccc(S(=O)(=O)Nc3cc(C)c(Cl)cc3C)c2)s1 [Example 78, N-(4-chloro-2,5-dimethylphenyl)-3-(5-methylthiazol-2-yl)benzenesulfonamide]
8 | > 100 | Cc1cnc(-c2ccccc2NS(=O)(=O)c2cc(C)c(Cl)cc2C)s1 [Example 79, 4-chloro-2,5-dimethyl-N-(2-(5-methylthiazol-2-yl)phenyl)benzenesulfonamide]
9 | > 100 | Cc1csc(-c2ccccc2NS(=O)(=O)c2cc(C)c(Cl)cc2C)n1 [Example 80, 4-chloro-2,5-dimethyl-N-(2-(4-methylthiazol-2-yl)phenyl)benzenesulfonamide]
10 | 3 | Cc1cc(S(=O)(=O)Nc2csc(-c3ccccc3)n2)c(C)cc1Cl [Example 81, 4-chloro-2,5-dimethyl-N-(2-phenylthiazol-4-yl)benzenesulfonamide]
11 | > 100 | Cc1cc(S(=O)(=O)NC2CCOc3c(Cl)cccc32)c(C)cc1Cl (stereo not shown) [Example 82, 4-chloro-N-(8-chlorochroman-4-yl)-2,5-dimethylbenzenesulfonamide]
12 | > 100 | Cc1cnc(-c2ccc(NS(=O)(=O)c3cc(C)c(Cl)cc3C)cc2)s1 [Example 83, 4-chloro-2,5-dimethyl-N-(4-(5-methylthiazol-2-yl)phenyl)benzenesulfonamide]
13 | > 100 | Cc1cc(S(=O)(=O)Nc2cc(-c3ccccc3)no2)c(C)cc1Cl [Example 84, 4-chloro-2,5-dimethyl-N-(3-phenylisoxazol-5-yl)benzenesulfonamide]
14 | > 100 | Cc1nc2cccc(NS(=O)(=O)c3cc(C)c(Cl)cc3C)c2s1 [Example 85, 4-chloro-2,5-dimethyl-N-(2-methylbenzo[d]thiazol-7-yl)benzenesulfonamide]
15 | > 100 | Cc1cc(S(=O)(=O)Nc2ccc(-c3ncc(CN(C)C)s3)cc2)c(C)cc1Cl [Example 86, 4-chloro-N-(4-(5-((dimethylamino)methyl)thiazol-2-yl)phenyl)-2,5-dimethylbenzenesulfonamide]
16 | > 100 | COC(=O)c1cnc(-c2cccc(NS(=O)(=O)c3cc(C)c(Cl)cc3C)c2)s1 [Example 88, methyl 2-(3-((4-chloro-2,5-dimethylphenyl)sulfonamido)phenyl) thiazole-5-carboxylate]
17 | 8 | Cc1cc(S(=O)(=O)Nc2cccc(-c3ncc(CO)s3)c2)c(C)cc1Cl [Example 89, 4-chloro-N-(3-(5-(hydroxymethyl)thiazol-2-yl)phenyl)-2,5-dimethylbenzenesulfonamide]
18 | > 100 | Cc1cc(S(=O)(=O)Nc2cccc(-c3ncc(C(=O)O)s3)c2)c(C)cc1Cl [Example 90, 2-(3-((4-chloro-2,5-dimethylphenyl)sulfonamido)phenyl) thiazole-5-carboxylic acid]
19 | > 100 | Cc1cc(S(=O)(=O)Nc2cccc(C(=O)N3CCCN(C(=O)C(C)C)CC3)c2)c(C)cc1Cl [Example 91, 4-chloro-N-(3-(4-isobutyryl-1,4-diazepane-1-carbonyl)phenyl)-2,5-dimethylbenzenesulfonamide]
